Measured values taken from US10624972B2, “Conjugates for treating diseases” (priority 2015, dated 2020).
“Also recorded” adds a separate entry of the source. Like-named read-outs stand apart in the source and are kept apart here.

Assays:
[1] = tested on: KB cells; experiment: cells; type: cell-based, Human
Experimental: METHOD. Inhibition of Cellular DNA Synthesis. The conjugates described herein were evaluated using an in vitro cytotoxicity assay that predicted the ability of the drug to inhibit the growth of the corresponding targeted cells, such as, but not limited to the following
It is to be understood that the choice of cell type can be made on the basis of the susceptibility of those selected cells to the drug that forms the conjugate, and the relative expression of the cell surface receptor or target antigen. The test conjugates were conjugates of a cell surface receptor or target antigen binding compound and PBD prodrugs, poly-PBD prodrugs, and mixed PBDs, as described herein. The test cells were exposed to varying concentrations of the conjugates, and optionally also in the absence or presence of at least a 100-fold excess of the unconjugated cell surface receptor or target antigen binding compound for competition studies to assess activity as being specific to the cell surface receptor or target antigen.
EXAMPLE. Conjugates of PBD prodrugs, poly-PBD prodrugs, and mixed PBDs described herein were active against KB cells. The activity was mediated by the folate receptor as indicated by competition experiments using co-administered folic acid. KB cells were exposed for up to 7 h at 37° C. to the indicated concentrations of folate-drug conjugate in the absence or presence of at least a 100-fold excess of folic acid. The cells were then rinsed once with fresh culture medium and incubated in fresh culture medium for 72 hours at 37° C. Cell viability was assessed using a ^3H-thymidine incorporation assay. For conjugates described herein, dose-dependent cytotoxicity was generally measurable, and in most cases, the IC50 values (concentration of drug conjugate required to reduce ^3H-thymidine incorporation into newly synthesized DNA by 50%) were in the low nanomolar range.

[2] = tested on: MDA-MB-231 tumors; experiment: TNBC tumor assay (MDA-MB-231 xenograft); type: in vivo, nu/nu mice; conditions: 2 μmol/kg TIW for two weeks
Source text: General. […] A PR is observed where tumor volume, as defined herein, decreases from a previous high during the observation period, though regrowth may occur. A CR is observed where tumor volume, as defined herein, decreases to zero during the observation period, though regrowth may occur.
METHOD EXAMPLE. TNBC Tumor Assay. Triple negative breast cancer (TNBC) is a subtype characterized by lack of gene expression for estrogen, progesterone and Her2/neu. TNBC is difficult to treat, and the resulting death rate in patients is reportedly disproportionately higher than for any other subtype of breast cancer. A TNBC xenograft model was generated in an analogous way to the KB and M109 models described herein by implanting MDA-MB-231 breast cancer cells in nu/nu mice. […] Test animals (5/group) were injected intravenously, generally three times a week (TIW), for 2-3 weeks with varying doses, such as with 1 μmol/kg to 5 μmol/kg, of the drug delivery conjugate or with an equivalent dose volume of PBS (control), unless otherwise indicated. Dosing solutions were prepared fresh each day in PBS and administered through the lateral tail vein of the mice.

[3] = Toxicity as measured by weight loss (test animal total body weight); type: in vivo, mice
Experimental: METHOD. Toxicity as Measured by Weight Loss. The percentage weight change of the test animals was determined on selected days post-tumor inoculation (PTI), and during dosing. The results were graphed.

[4] = tested on: KB-CR2000 tumors; experiment: Cisplatin therapy of cisplatin-resistant KB-CR2000 tumors; type: in vivo; conditions: high, toxic dose of cisplatin
Source text: METHOD. Human cisplatin-resistant cell line.

[5] = KB tumor study, 2 μmol/kg TIW for two weeks

## C=C1C[C@H]2C(=O)Nc3cc(OCCCCCOc4cc(N)c(C(=O)N5CC(=C)C[C@H]5C5OCCN5C(=O)OCCSSC[C@H](NC(=O)[C@H](CC(=O)O)NC(=O)[C@H](CC(=O)O)NC(=O)[C@H](CCCNC(=N)N)NC(=O)[C@H](CC(=O)O)NC(=O)CC[C@H](NC(=O)c5ccc(NCc6cnc7nc(N)[nH]c(=O)c7n6)cc5)C(=O)O)C(=O)O)cc4OC)c(OC)cc3C(=O)N2C1 (stereo partly drawn) [EC1744]
[1]; 3 h
  IC50: 1.2 nM
[2]
  MDA-MB-231 tumors compared to untreated control: decreases MDA-MB-231 tumors; also recorded: decreased triple negative breast cancer (TNBC) MDA-MB-231 tumors
  complete response, number of test animals, MDA-MB-231 tumors: 5/5
  cure, number of test animals, MDA-MB-231 tumors: 4/5
[3]; [5]
  toxicity as evidenced by test animal total body weight: Toxicity was not observed
[3]; MDA-MB-231 tumor study, 2 μmol/kg TIW for two weeks
  toxicity as evidenced by test animal total body weight: Toxicity was not observed

## C=C1C[C@H]2C=Nc3cc(OCCCCCOc4cc(N)c(C(=O)N5CC(=C)C[C@H]5C5OCCN5C(=O)OCCSSC[C@H](NC(=O)[C@H](CC(=O)O)NC(=O)[C@H](CC(=O)O)NC(=O)[C@H](CCCNC(=N)N)NC(=O)[C@H](CC(=O)O)NC(=O)CC[C@H](NC(=O)c5ccc(NCc6cnc7nc(N)[nH]c(=O)c7n6)cc5)C(=O)O)C(=O)O)cc4OC)c(OC)cc3C(=O)N2C1 (stereo partly drawn) [EC1788]
[1]; KB cells, 3H-thymidine incorporation, read-out: IC50 KB Cells
  IC50: 0.18 nM
[3]; KB tumor study, 0.2 μmol/kg TIW for two weeks
  toxicity as evidenced by test animal total body weight: Minor toxicity was observed
[3]; KB tumor study, 0.4 μmol/kg BIW for 2 weeks
  toxicity as evidenced by test animal total body weight: Minor toxicity was observed

## C=C1C[C@@H](C2OCCN2C(=O)OCCSSC[C@@H](NC(=O)[C@H](CCC(=O)NC[C@H](O)[C@@H](O)[C@H](O)[C@H](O)CO)NC(=O)[C@@H](CCC(=O)O)NC(=O)[C@H](CCC(=O)NC[C@H](O)[C@@H](O)[C@H](O)[C@H](O)CO)NC(=O)[C@@H](CCC(=O)O)NC(=O)[C@H](CCC(=O)NC[C@H](O)[C@@H](O)[C@H](O)[C@H](O)CO)NC(=O)CC[C@H](NC(=O)c2ccc(NCc3cnc4nc(N)[nH]c(=O)c4n3)cc2)C(=O)O)C(=O)O)N(C(=O)c2cc(OC)c(OCCCCCOc3ccc(-c4nc5ccc(-c6nc7cc(N8CCN(C)CC8)ccc7[nH]6)cc5[nH]4)cc3)cc2N)C1 (stereo partly drawn) [EC1879]
[1]; 3 h
  IC50: 0.56 nM
[3]; KB tumor study, 2 μmol/kg TIW for 1 week
  toxicity as evidenced by test animal total body weight: Minor toxicity was observed
[3]; [5]
  toxicity as evidenced by test animal total body weight: Toxicity was not observed

## C=C1C[C@@H](C2OCCN2C(=O)OCCSSC[C@@H](NC(=O)[C@H](CCC(=O)NC[C@H](O)[C@@H](O)[C@H](O)[C@H](O)CO)NC(=O)[C@@H](CCC(=O)O)NC(=O)[C@H](CCC(=O)NC[C@H](O)[C@@H](O)[C@H](O)[C@H](O)CO)NC(=O)[C@@H](CCC(=O)O)NC(=O)[C@H](CCC(=O)NC[C@H](O)[C@@H](O)[C@H](O)[C@H](O)CO)NC(=O)CC[C@H](NC(=O)c2ccc(NCc3cnc4nc(N)[nH]c(=O)c4n3)cc2)C(=O)O)C(=O)O)N(C(=O)c2cc(OC)c(OCCCCCOc3cc(N)c(C(=O)N4CC(=C)C[C@H]4C4OCCN4C(=O)OCC4c5ccccc5-c5ccccc54)cc3OC)cc2N)C1 (stereo partly drawn) [EC1884]
[1]; 3 h
  IC50: 0.36 nM
[3]; [5]
  toxicity as evidenced by test animal total body weight: Toxicity was not observed

## N.N.[Cl][Pt][Cl] [cisplatin]
[4]
  tumor response to cisplatin therapy: did not produce even a single partial response
